Test results taken from the supplement of paper PMC10307832.

Each cell line was assayed with CC(C)(C)c1nc(-c2cccc(NS(=O)(=O)c3c(F)cccc3F)c2F)c(-c2ccnc(N)n2)s1 [Dabrafenib] (assay: relative viability (nuclei count vs DMSO), 5 days (fraction); higher = more cells survive). Conditions: 0.003 µM.
Outline: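 Five library-drug doses spaced by √10 were pinned onto vehicle-anchored 1536-well plates of lung cancer cell lines that had been kept overnight at 37 °C. Cells went 5 days without medium change, then were fixed, permeabilised and Hoechst-stained together, imaged at 4× and counted by MetaXpress. Viability is the ratio of treated-well to vehicle-well nuclei, taken as a median over plates. Plates required control CV below 25% and at least one doubling.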
HCC-15 gave a relative viability of 0.942.
Cell Line LU99A has a relative viability of 0.968.
Work on EKVX yielded a relative viability of 0.693.
Calu-6 showed a relative viability of 1.03.
For COR-L23, the relative viability was 0.976.
For NCI-H1437, the relative viability was 0.939.
With RERF-LC-KJ the relative viability was 1.
Work on NCI-H460 yielded a relative viability of 0.965.
H3255 showed a relative viability of 0.868.
With SW 1573 the relative viability was 0.899.
NCI-H838 gave a relative viability of 0.966.
In the case of EPLC-272H, the relative viability was 0.509.
Cell Line NCI-H3122 has a relative viability of 0.981.
NCI-H1563 showed a relative viability of 0.971.
In the case of NCI-H1915, the relative viability was 1.03.
NCI-H1975 showed a relative viability of 0.936.
LK-2 showed a relative viability of 0.975.
In the case of HCC-366, the relative viability was 0.734.
Work on NCI-H661 yielded a relative viability of 0.988.

Same assay, conditions: 0.009487 µM
Work on A-427 yielded a relative viability of 0.983.
For NCI-H1355, the relative viability was 0.986.
Work on NCI-H1792 yielded a relative viability of 0.915.
HCC-15 showed a relative viability of 1.04.
LU99A was tested, and the relative viability was 1.06.
Cell Line EKVX has a relative viability of 1.03.
Work on Calu-6 yielded a relative viability of 1.03.
For COR-L23, the relative viability was 1.
NCI-H1437 gave a relative viability of 0.971.
For RERF-LC-KJ, the relative viability was 1.15.
Cell Line NCI-H1734 has a relative viability of 1.08.
Cell Line BEN has a relative viability of 1.05.
Work on NCI-H460 yielded a relative viability of 0.954.
H3255 gave a relative viability of 1.05.
Cell Line SK-LU-1 has a relative viability of 1.03.
NCI-H1793 was tested, and the relative viability was 1.29.
NCI-H23 showed a relative viability of 0.913.
Work on SW 1573 yielded a relative viability of 0.916.
NCI-H838 gave a relative viability of 1.07.
EPLC-272H gave a relative viability of 1.01.
NCI-H3122 was tested, and the relative viability was 1.05.
For NCI-H1563, the relative viability was 1.01.
NCI-H1915 gave a relative viability of 1.04.
Work on NCI-H727 yielded a relative viability of 0.998.
With NCI-H1975 the relative viability was 0.982.
Work on LK-2 yielded a relative viability of 1.04.
HCC-366 gave a relative viability of 1.04.
NCI-H2087 gave a relative viability of 1.08.
With LCLC-97TM1 the relative viability was 0.914.
NCI-H661 gave a relative viability of 0.967.
NCI-H2405 gave a relative viability of 0.931.

Same assay, conditions: 0.03 µM
A-427 was tested, and the relative viability was 0.849.
For NCI-H1355, the relative viability was 0.986.
NCI-H1792 gave a relative viability of 0.877.
HCC-15 showed a relative viability of 1.04.
LU99A was tested, and the relative viability was 0.917.
In the case of EKVX, the relative viability was 0.932.
Calu-6 showed a relative viability of 0.909.
COR-L23 gave a relative viability of 0.968.
With NCI-H1437 the relative viability was 1.02.
RERF-LC-KJ showed a relative viability of 0.969.
With NCI-H1734 the relative viability was 0.716.
NCI-H460 was tested, and the relative viability was 0.919.
With H3255 the relative viability was 0.992.
Cell Line SK-LU-1 has a relative viability of 0.661.
NCI-H23 showed a relative viability of 0.85.
SW 1573 gave a relative viability of 1.06.
For NCI-H838, the relative viability was 0.889.
EPLC-272H showed a relative viability of 0.971.
NCI-H3122 showed a relative viability of 1.09.
In the case of NCI-H1563, the relative viability was 0.815.
In the case of NCI-H1915, the relative viability was 0.823.
NCI-H727 gave a relative viability of 0.782.
NCI-H1975 showed a relative viability of 0.925.
In the case of HCC-366, the relative viability was 0.725.
NCI-H2087 gave a relative viability of 0.853.
Work on LCLC-97TM1 yielded a relative viability of 1.01.
NCI-H661 gave a relative viability of 0.94.
Work on NCI-H2405 yielded a relative viability of 0.7.

Same assay, conditions: 0.09487 µM
A-427 was tested, and the relative viability was 0.797.
Work on NCI-H1355 yielded a relative viability of 0.739.
For NCI-H1792, the relative viability was 0.679.
HCC-15 gave a relative viability of 0.928.
In the case of LU99A, the relative viability was 0.88.
Cell Line EKVX has a relative viability of 0.941.
In the case of Calu-6, the relative viability was 0.805.
Work on COR-L23 yielded a relative viability of 0.93.
Cell Line NCI-H1437 has a relative viability of 0.971.
RERF-LC-KJ was tested, and the relative viability was 0.986.
For NCI-H1734, the relative viability was 0.765.
With BEN the relative viability was 0.889.
In the case of NCI-H460, the relative viability was 0.968.
For H3255, the relative viability was 0.873.
SK-LU-1 was tested, and the relative viability was 0.681.
For NCI-H1793, the relative viability was 0.761.
NCI-H23 showed a relative viability of 0.642.
SW 1573 gave a relative viability of 0.989.
Cell Line NCI-H838 has a relative viability of 0.896.
In the case of EPLC-272H, the relative viability was 0.785.
NCI-H3122 was tested, and the relative viability was 0.991.
NCI-H1563 showed a relative viability of 0.988.
NCI-H1915 showed a relative viability of 0.523.
Work on NCI-H727 yielded a relative viability of 0.902.
Work on NCI-H1975 yielded a relative viability of 0.778.
In the case of LK-2, the relative viability was 0.913.
HCC-366 gave a relative viability of 0.993.
In the case of NCI-H2087, the relative viability was 0.687.
LCLC-97TM1 gave a relative viability of 0.508.
NCI-H661 gave a relative viability of 0.986.
NCI-H2405 gave a relative viability of 0.898.

Same assay, conditions: 0.3 µM
Cell Line A-427 has a relative viability of 1.03.
In the case of NCI-H1355, the relative viability was 1.04.
With NCI-H1792 the relative viability was 0.806.
Work on HCC-15 yielded a relative viability of 0.921.
For LU99A, the relative viability was 0.801.
Work on EKVX yielded a relative viability of 1.14.
With Calu-6 the relative viability was 0.786.
For COR-L23, the relative viability was 0.998.
NCI-H1437 was tested, and the relative viability was 1.02.
Work on RERF-LC-KJ yielded a relative viability of 1.1.
Work on NCI-H1734 yielded a relative viability of 0.891.
Cell Line BEN has a relative viability of 1.07.
NCI-H460 gave a relative viability of 0.985.
Cell Line H3255 has a relative viability of 1.04.
Work on SK-LU-1 yielded a relative viability of 0.762.
NCI-H1793 showed a relative viability of 1.05.
In the case of NCI-H23, the relative viability was 0.919.
With SW 1573 the relative viability was 1.05.
NCI-H838 was tested, and the relative viability was 1.05.
EPLC-272H was tested, and the relative viability was 0.964.
NCI-H3122 gave a relative viability of 1.06.
NCI-H1563 was tested, and the relative viability was 1.04.
